Measurements reported in patent US11807644B2 (PMV Pharmaceuticals, Inc., priority 2020, dated 2023).

biological target: T1, recombinant His-tag Y220C p53 DBD protein (Homo sapiens, UniProt P04637, Y220C); test: In vitro DNA binding activity assay (TR-FRET): binding of His-tag Y220C p53 DBD to biotin-labeled consensus DNA; assay type: biochemical; conditions: SC150 = concentration to increase DNA binding by […], His-tag Y220C p53 DBD, biotin-labeled consensus DNA
T1 construct: recombinant His-tag Y220C p53 DBD protein (amino acids #˜94-312)

Q: `CN1CC[C@@H](Nc2cccc3c2cc(-c2noc(CNc4nccc5ccsc45)n2)n3CC(F)(F)F)[C@@H](F)C1` [Compound 445B, N-[(3S,4R)-3-fluoro-1-methylpiperidin-4-yl]-2-{5-[({thieno[2,3-c]pyridin-7-yl}amino)methyl]-1,2,4-oxadiazol-3-yl}-1-(2,2,2-trifluoroethyl)-1H-indol-4-amine] was tested. Which “Y220C SC150 (μM)” value did it give?
A: * (* = 0 μM ≤ SC150 < 0.1 μM)

Q: For `CC(C)c1nc(C(=O)NCc2nc(-c3cc4c(N[C@@H]5CCN(C)C[C@@H]5F)cccc4n3CC(F)(F)F)no2)cs1` [Compound 434B, N-{[3-(4-{[(3S,4R)-3-fluoro-1-methylpiperidin-4-yl]amino}-1-(2,2,2-trifluoroethyl)-1H-indol-2-yl)-1,2,4-oxadiazol-5-yl]methyl}-2-(propan-2-yl)-1,3-thiazole-4-carboxamide], which “Y220C SC150 (μM)” value is on record?
A: * (* = 0 μM ≤ SC150 < 0.1 μM)

Q: `CN1CC[C@@H](Nc2cccc3c2cc(-c2nccs2)n3CC(F)(F)F)[C@@H](F)C1` (racemic) [Compound 93B, (+/−)-N-[(3R,4S)-3-fluoro-1-methylpiperidin-4-yl]-2-(1,3-thiazol-2-yl)-1-(2,2,2-trifluoroethyl)-1H-indol-4-amine] was tested. Which “Y220C SC150 (μM)” value did it give?
A: *** (*** = 0.5 μM ≤ SC150 < 1 μM)

Q: Which “Y220C SC150 (μM)” value does the source give for `CN1CCC(Nc2cccc3c2cc(-c2nnc(CNC(=O)C4CC4c4cccs4)s2)n3CC(F)(F)F)CC1` (stereo not drawn) [Compound 79B, N-[(5-{4-[(1-methylpiperidin-4-yl)amino]-1-(2,2,2-trifluoroethyl)-1H-indol-2-yl}-1,3,4-thiadiazol-2-yl)methyl]-2-(thiophen-2-yl)cyclopropane-1-carboxamide] here?
A: * (* = 0 μM ≤ SC150 < 0.1 μM)

Q: For `CC(C)n1cncc1C(=O)NCc1nc(-c2cc3c(N[C@@H]4CCN(C)C[C@@H]4F)cccc3n2CC(F)(F)F)no1` [Compound 257B, N-{[3-(4-{[(3S,4R)-3-fluoro-1-methylpiperidin-4-yl]amino}-1-(2,2,2-trifluoroethyl)-1H-indol-2-yl)-1,2,4-oxadiazol-5-yl]methyl}-1-(propan-2-yl)-1H-imidazole-5-carboxamide], which “Y220C SC150 (μM)” value is on record?
A: * (* = 0 μM ≤ SC150 < 0.1 μM)

Q: Which “Y220C SC150 (μM)” value does the source give for `CN1CC[C@H](F)[C@H](Nc2cccc3c2cc(-c2noc(CNC(=O)c4ccn(C(C)(C)C)c4)n2)n3CC(F)(F)F)C1` [Compound 414B, 1-tert-butyl-N-{[3-(4-{[(3R,4S)-4-fluoro-1-methylpiperidin-3-yl]amino}-1-(2,2,2-trifluoroethyl)-1H-indol-2-yl)-1,2,4-oxadiazol-5-yl]methyl}-1H-pyrrole-3-carboxamide] here?
A: * (* = 0 μM ≤ SC150 < 0.1 μM)

Q: `CN1CC[C@@H](Nc2cccc3c2cc(-c2nnc(CNC(=O)c4ccn(C(C)(C)C)c4)o2)n3CC(F)(F)F)[C@@H](F)C1` [Compound 288B, 1-tert-butyl-N-{[5-(4-{[(3S,4R)-3-fluoro-1-methylpiperidin-4-yl]amino}-1-(2,2,2-trifluoroethyl)-1H-indol-2-yl)-1,3,4-oxadiazol-2-yl]methyl}-1H-pyrrole-3-carboxamide] was tested. Which “Y220C SC150 (μM)” value did it give?
A: * (* = 0 μM ≤ SC150 < 0.1 μM)

Q: For `COC(=O)[C@@H]1C[C@H]1C(=O)NCc1nnc(-c2cc3c(NC4CCN(C)CC4)cccc3n2CC(F)(F)F)s1` (racemic) [Compound 75B, (+/−)-methyl (1R,2R)-2-{[(5-{4-[(1-methylpiperidin-4-yl)amino]-1-(2,2,2-trifluoroethyl)-1H-indol-2-yl}-1,3,4-thiadiazol-2-yl)methyl]carbamoyl}cyclopropane-1-carboxylate], which “Y220C SC150 (μM)” value is on record?
A: * (* = 0 μM ≤ SC150 < 0.1 μM)

Q: With `CN1CC[C@@H](Nc2cccc3c2cc(-c2noc(CNC(=O)c4ccc(C(C)(C)C)nc4)n2)n3CC(F)(F)F)[C@@H](F)C1` [Compound 501B, 6-tert-butyl-N-{[3-(4-{[(3S,4R)-3-fluoro-1-methylpiperidin-4-yl]amino}-1-(2,2,2-trifluoroethyl)-1H-indol-2-yl)-1,2,4-oxadiazol-5-yl]methyl}pyridine-3-carboxamide] as the compound, how does the “Y220C SC150 (μM)” value read?
A: * (* = 0 μM ≤ SC150 < 0.1 μM)

Q: For `Cn1cc(C(=O)NCc2nc(-c3cc4c(N[C@H]5CCN(C(C)(C)C)C[C@H]5F)cccc4n3CC(F)(F)F)no2)cn1` [Compound 406B, N-{[3-(4-{[(3R,4S)-1-tert-butyl-3-fluoropiperidin-4-yl]amino}-1-(2,2,2-trifluoroethyl)-1H-indol-2-yl)-1,2,4-oxadiazol-5-yl]methyl}-1-methyl-1H-pyrazole-4-carboxamide], which “Y220C SC150 (μM)” value is on record?
A: * (* = 0 μM ≤ SC150 < 0.1 μM)

Q: For `O=C(NCc1nc(-c2cc3c(NC4CCN(C5CC5)CC4)cccc3n2CC(F)(F)F)no1)C1CC1` [Compound 164B, N-[(3-{4-[(1-cyclopropylpiperidin-4-yl)amino]-1-(2,2,2-trifluoroethyl)-1H-indol-2-yl}-1,2,4-oxadiazol-5-yl)methyl]cyclopropanecarboxamide], which “Y220C SC150 (μM)” value is on record?
A: * (* = 0 μM ≤ SC150 < 0.1 μM)

Q: How did the “Y220C SC150 (μM)” value turn out when `CC(C)(C)n1ccc(C(=O)NCc2nc(-c3cc4c(N[C@@H]5CCCC[C@H]5F)cccc4n3CC(F)(F)F)no2)c1` (racemic) [Compound 340B] was run?
A: ** (** = 0.1 μM ≤ SC150 < 0.5 μM)

Q: For `CN1CC[C@@H](Nc2cccc3c2cc(-c2noc(CNC(=O)c4cn(CC(F)F)cn4)n2)n3CC(F)(F)F)[C@@H](F)C1` [Compound 310B, 1-(2,2-difluoroethyl)-N-{[3-(4-{[(3S,4R)-3-fluoro-1-methylpiperidin-4-yl]amino}-1-(2,2,2-trifluoroethyl)-1H-indol-2-yl)-1,2,4-oxadiazol-5-yl]methyl}-1H-imidazole-4-carboxamide], which “Y220C SC150 (μM)” value is on record?
A: * (* = 0 μM ≤ SC150 < 0.1 μM)

Q: For `CN1CC[C@@H](Nc2cccc3c2cc(-c2noc(CNC(=O)[C@@H]4C[C@H]4c4ccccc4)n2)n3CC(F)(F)F)[C@@H](F)C1` (racemic) [Compound 185B], which “Y220C SC150 (μM)” value is on record?
A: * (* = 0 μM ≤ SC150 < 0.1 μM)

Q: With `CN1CC[C@H](F)[C@H](Nc2cccc3c2cc(-c2noc(CNC(=O)c4cnn(C(C)(C)C)c4)n2)n3CC(F)(F)F)C1` [Compound 408B, 1-tert-butyl-N-{[3-(4-{[(3R,4S)-4-fluoro-1-methylpiperidin-3-yl]amino}-1-(2,2,2-trifluoroethyl)-1H-indol-2-yl)-1,2,4-oxadiazol-5-yl]methyl}-1H-pyrazole-4-carboxamide] as the compound, how does the “Y220C SC150 (μM)” value read?
A: * (* = 0 μM ≤ SC150 < 0.1 μM)

Q: Which “Y220C SC150 (μM)” value does the source give for `COCC(C)(C)n1ccc(C(=O)NCc2nc(-c3cc4c(N[C@H]5CN(C)CC[C@H]5F)cccc4n3CC(F)(F)F)no2)c1` [Compound 418B, N-{[3-(4-{[(3S,4R)-4-fluoro-1-methylpiperidin-3-yl]amino}-1-(2,2,2-trifluoroethyl)-1H-indol-2-yl)-1,2,4-oxadiazol-5-yl]methyl}-1-(1-methoxy-2-methylpropan-2-yl)-1H-pyrrole-3-carboxamide] here?
A: * (* = 0 μM ≤ SC150 < 0.1 μM)

Q: `O=C(NCc1nc(-c2cc3c(NCC4CCC4)cccc3n2CC(F)(F)F)no1)C1CC1` [Compound 166B, N-[(3-{4-[(cyclobutylmethyl)amino]-1-(2,2,2-trifluoroethyl)-1H-indol-2-yl}-1,2,4-oxadiazol-5-yl)methyl]cyclopropanecarboxamide] was tested. Which “Y220C SC150 (μM)” value did it give?
A: ** (** = 0.1 μM ≤ SC150 < 0.5 μM)

Q: `CN1CC[C@@H](Nc2cccc3c2cc(-c2noc(CNC(=O)c4ccn(C5CCC(F)(F)C5)c4)n2)n3CC(F)(F)F)[C@@H](F)C1` (stereo partly drawn) [Compound 347B, 1-(3,3-difluorocyclopentyl)-N-{[3-(4-{[(3S,4R)-3-fluoro-1-methylpiperidin-4-yl]amino}-1-(2,2,2-trifluoroethyl)-1H-indol-2-yl)-1,2,4-oxadiazol-5-yl]methyl)-1H-pyrrole-3-carboxamide] was tested. Which “Y220C SC150 (μM)” value did it give?
A: * (* = 0 μM ≤ SC150 < 0.1 μM)
